Among the data in patent US20230146675A1, “PYRIMIDO[5,4-d]PYRIMIDINE DERIVATIVES AS ENT INHIBITORS FOR THE TREATMENT OF CANCERS, AND COMBINATION THEREOF WITH ADENOSINE RECEPTOR ANTAGONISTS” (ITEOS BELGIUM SA, priority 2020, published 2023) are IC50 values, retold here.

SMILES strings stand for the structures.

Assay [1] concerns the target T1, Human phosphodiesterase-2A1 (Homo sapiens, UniProt O00408).
T1 construct: host or cells: Sf9 cells
Kind of assay: PDE2A1 (h) assay. The class given is biochemical. How it is done:
The test compound (compound 72), reference compound or water (control) were added to a buffer containing 40 mM Tris/HCl (pH 7.8), 3 mM MgCl2, 1.4 mM DTT, 0.21% BSA, 200 mM NH4Cl, 1 μM cGMP and 0.1 μCi [3H]cGMP. Thereafter, the reaction was initiated by addition of the enzyme (final amount depending on the efficiency of the isolation) and the mixture was incubated for 60 min at 22° C. For basal control measurements, the enzyme was omitted from the reaction mixture. Following incubation SPA beads were added. After 20 min at 22° C. under shaking, the amount of [3H]5′GMP was quantified with a scintillation counter (MicroBeta, Perkin Elmer). The results were expressed as a percent inhibition of the control enzyme activity.
The test compound (compound 72), reference compound or water (control) were added to a buffer containing 40 mM Tris/HCl (pH 7.4), 8 mM MgCl2 and 1.7 mM EGTA/NaOH, 1.8 μM cAMP and 1 μCi [3H]cAMP. Thereafter, the reaction was initiated by addition of the enzyme (about 2 ng) and the mixture was incubated for 15 min at 22° C. For basal control measurements, the enzyme was omitted from the reaction mixture. Following incubation SPA beads were added. After 30 min at 22° C. under shaking, the amount of [3H]5′AMP was quantified with a scintillation counter (MicroBeta, Perkin Elmer). The results were expressed as a percent inhibition of the control enzyme activity. […]

Assay [2] concerns the target T2, Human phosphodiesterase-4B1 (Homo sapiens, UniProt Q07343).
T2 construct: host or cells: Sf9 cells
The experiment in a line: PDE4B1 (h) assay. The class given is biochemical. As to the method:
The test compound (compound 72), reference compound or water (control) were added to a buffer containing 40 mM Tris/HCl (pH 7.4) and 8 mM MgCl2, 450 nM cAMP and 0.25 μCi [3H]cAMP. Thereafter, the reaction was initiated by addition of the enzyme (about 10 U) and the mixture was incubated for 20 min at 22° C. For basal control measurements, the enzyme was omitted from the reaction mixture. Following incubation SPA beads were added. After 30 min at 22° C. under shaking, the amount of [3H]5′AMP was quantified with a scintillation counter (MicroBeta, Perkin Elmer). The results were expressed as a percent inhibition of the control enzyme activity. The standard inhibitory reference compound was Ro 20-1724, which was tested in each experiment at several concentrations to obtain an inhibition curve from which its IC50 value was calculated. • Human phosphodiesterase-4B1 quantified by measuring the formation of 5′AMP from cAMP using a human recombinant enzyme expressed in Sf9 cells.
The test compound (compound 72), reference compound or water (control) were added to a buffer containing 40 mM Tris/HCl (pH 7.4), 8 mM MgCl2 and 1.7 mM EGTA/NaOH, 450 nM cAMP and 0.25 μCi [3H]cAMP. […] After 30 min at 22° C. under shaking, the amount of [3H]5′AMP was quantified with a scintillation counter (MicroBeta, Perkin Elmer). The results were expressed as a percent inhibition of the control enzyme activity. […]

Assay [3] concerns the target T3, Human phosphodiesterase-7A1 (Homo sapiens, UniProt Q13946).
T3 construct: host or cells: Sf9 cells
The experiment in a line: PDE7A1 (h) assay. The class given is biochemical. As to the method:
The test compound (compound 72), reference compound or water (control) were added to a buffer containing 40 mM Tris/HCl (pH 7.4), 8 mM MgCl2 and 1.7 mM EGTA/NaOH, 1.8 μM cAMP and 1 μCi [3H]cAMP. Thereafter, the reaction was initiated by addition of the enzyme (about 2 ng) and the mixture was incubated for 15 min at 22° C. For basal control measurements, the enzyme was omitted from the reaction mixture. Following incubation SPA beads were added. After 30 min at 22° C. under shaking, the amount of [3H]5′AMP was quantified with a scintillation counter (MicroBeta, Perkin Elmer). The results were expressed as a percent inhibition of the control enzyme activity. The standard inhibitory reference compound was EHNA, which was tested in each experiment at several concentrations to obtain an inhibition curve from which its IC50 value was calculated. • Human phosphodiesterase-7A1 quantified by measuring the formation of 5′AMP from cAMP using a human recombinant enzyme expressed in Sf9 cells
The test compound (compound 72), reference compound or water (control) were added to a buffer containing 40 mM Tris/HCl (pH 7.4) and 8 mM MgCl2, 63 nM cAMP and 0.035 μCi [3H]cAMP. […] After 30 min at 22° C. under shaking, the amount of [3H]5′AMP was quantified with a scintillation counter (MicroBeta, Perkin Elmer). The results were expressed as a percent inhibition of the control enzyme activity. […]

Another assay has as its target T4, human ENT1 (Homo sapiens, UniProt Q99808).
T4 sequence (Q99808 1-456): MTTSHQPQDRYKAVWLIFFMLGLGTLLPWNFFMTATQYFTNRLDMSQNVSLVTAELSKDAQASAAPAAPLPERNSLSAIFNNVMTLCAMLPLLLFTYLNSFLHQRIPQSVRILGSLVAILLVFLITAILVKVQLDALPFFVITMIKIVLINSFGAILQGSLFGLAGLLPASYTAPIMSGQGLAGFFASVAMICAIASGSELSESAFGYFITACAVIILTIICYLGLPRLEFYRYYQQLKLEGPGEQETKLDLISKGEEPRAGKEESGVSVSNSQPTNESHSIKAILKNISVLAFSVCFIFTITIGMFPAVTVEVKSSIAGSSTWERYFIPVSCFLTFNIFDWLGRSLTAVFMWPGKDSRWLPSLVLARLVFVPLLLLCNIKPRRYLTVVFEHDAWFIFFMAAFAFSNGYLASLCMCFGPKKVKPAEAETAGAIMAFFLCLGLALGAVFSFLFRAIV
The experiment in a line: ENT1 binding assay (competition with Sahenta-DY647 on JAR cells). More on the design: JAR cells expressing ENT1 were bought from ATCC; host or cells: JAR cells. As to conditions: binned IC50. An outline of the steps:
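JAR cells were incubated with test compounds and the fluorescent ligand Sahenta-DY647 in competition. Plates were washed twice by centrifugation (4 min, 400 rcf, 4 °C). Binding potency was derived from the final fluorescence.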

T3 sequence (Q13946 whole entry): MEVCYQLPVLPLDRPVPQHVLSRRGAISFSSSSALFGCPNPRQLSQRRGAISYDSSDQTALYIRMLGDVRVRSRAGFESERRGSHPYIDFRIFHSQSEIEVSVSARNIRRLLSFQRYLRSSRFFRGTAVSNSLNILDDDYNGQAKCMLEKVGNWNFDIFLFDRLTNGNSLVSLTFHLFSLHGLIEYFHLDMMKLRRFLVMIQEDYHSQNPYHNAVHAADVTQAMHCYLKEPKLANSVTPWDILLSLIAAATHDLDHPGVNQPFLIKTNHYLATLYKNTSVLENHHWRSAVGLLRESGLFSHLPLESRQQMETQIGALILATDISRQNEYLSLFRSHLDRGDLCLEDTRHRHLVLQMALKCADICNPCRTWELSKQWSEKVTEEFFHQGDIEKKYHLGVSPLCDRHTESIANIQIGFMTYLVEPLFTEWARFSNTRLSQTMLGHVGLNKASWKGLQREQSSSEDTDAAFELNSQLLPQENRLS
T1 sequence (O00408 1-920 isoform O00408-2): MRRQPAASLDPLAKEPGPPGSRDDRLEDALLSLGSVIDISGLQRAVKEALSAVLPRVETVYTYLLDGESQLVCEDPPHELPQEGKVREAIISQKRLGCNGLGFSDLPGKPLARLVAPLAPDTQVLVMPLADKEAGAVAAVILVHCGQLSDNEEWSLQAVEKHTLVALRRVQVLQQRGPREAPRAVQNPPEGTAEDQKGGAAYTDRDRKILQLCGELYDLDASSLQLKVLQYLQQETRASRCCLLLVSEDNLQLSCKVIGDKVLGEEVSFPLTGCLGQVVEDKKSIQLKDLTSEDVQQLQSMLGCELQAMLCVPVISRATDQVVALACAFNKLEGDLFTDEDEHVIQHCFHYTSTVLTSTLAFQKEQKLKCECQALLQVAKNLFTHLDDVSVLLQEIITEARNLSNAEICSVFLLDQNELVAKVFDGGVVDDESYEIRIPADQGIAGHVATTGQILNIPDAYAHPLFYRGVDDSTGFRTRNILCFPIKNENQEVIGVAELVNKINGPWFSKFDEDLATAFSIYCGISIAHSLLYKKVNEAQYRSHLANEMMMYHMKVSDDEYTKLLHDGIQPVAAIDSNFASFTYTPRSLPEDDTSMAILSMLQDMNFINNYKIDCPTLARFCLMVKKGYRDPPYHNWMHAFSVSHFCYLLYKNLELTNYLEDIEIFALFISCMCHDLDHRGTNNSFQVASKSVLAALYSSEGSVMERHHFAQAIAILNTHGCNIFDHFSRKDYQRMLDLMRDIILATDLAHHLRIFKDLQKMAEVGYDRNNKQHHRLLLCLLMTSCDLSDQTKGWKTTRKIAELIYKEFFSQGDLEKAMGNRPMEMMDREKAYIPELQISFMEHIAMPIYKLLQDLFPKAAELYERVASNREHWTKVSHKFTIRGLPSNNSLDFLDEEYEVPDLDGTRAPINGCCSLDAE
T2 sequence (Q07343 whole entry): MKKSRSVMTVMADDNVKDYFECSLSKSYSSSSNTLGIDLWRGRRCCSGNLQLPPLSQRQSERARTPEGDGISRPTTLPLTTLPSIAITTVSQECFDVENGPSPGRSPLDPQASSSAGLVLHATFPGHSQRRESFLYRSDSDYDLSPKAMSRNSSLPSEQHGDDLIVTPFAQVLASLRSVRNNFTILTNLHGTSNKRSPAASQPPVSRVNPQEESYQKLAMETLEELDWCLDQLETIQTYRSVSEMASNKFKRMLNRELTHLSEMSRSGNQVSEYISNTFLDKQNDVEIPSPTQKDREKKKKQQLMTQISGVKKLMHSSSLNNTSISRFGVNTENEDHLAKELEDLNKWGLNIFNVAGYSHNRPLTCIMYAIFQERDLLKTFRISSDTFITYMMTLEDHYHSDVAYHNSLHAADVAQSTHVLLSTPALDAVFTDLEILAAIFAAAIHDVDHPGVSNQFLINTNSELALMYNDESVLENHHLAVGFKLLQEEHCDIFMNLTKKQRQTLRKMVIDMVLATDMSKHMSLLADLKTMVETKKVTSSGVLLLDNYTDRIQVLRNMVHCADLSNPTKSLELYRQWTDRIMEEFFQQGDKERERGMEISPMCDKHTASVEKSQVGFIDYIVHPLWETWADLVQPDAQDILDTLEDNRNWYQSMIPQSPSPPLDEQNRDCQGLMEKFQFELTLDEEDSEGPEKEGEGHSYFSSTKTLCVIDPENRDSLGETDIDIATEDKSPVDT

What is called IC50 is the concentration that gives 50% inhibition. A high value points to lower potency. Take `COCCN(CCOC)c1nc(N2CCN(C)C(=O)C2)c2nc(N(CCOC)CCOC)nc(N3CCC(OC)CC3)c2n1` [Compound 72, 4-(2,6-bis(bis(2-methoxyethyl)amino)-8-(4-methoxypiperidin-1-yl)pyrimido[5,4-d]pyrimidin-4-yl)-1-methylpiperazin-2-one]: the IC50 in assay [1] is greater than 10 µM; in assay [2], 1 to 10 µM; in assay [3] it was greater than 10 µM; at human ENT1, less than 0.1 µM.
